Target: T1, Deoxyuridine 5'-triphosphate nucleotidohydrolase, mitochondrial (Homo sapiens, UniProt P33316)
T1 sequence (P33316 whole entry): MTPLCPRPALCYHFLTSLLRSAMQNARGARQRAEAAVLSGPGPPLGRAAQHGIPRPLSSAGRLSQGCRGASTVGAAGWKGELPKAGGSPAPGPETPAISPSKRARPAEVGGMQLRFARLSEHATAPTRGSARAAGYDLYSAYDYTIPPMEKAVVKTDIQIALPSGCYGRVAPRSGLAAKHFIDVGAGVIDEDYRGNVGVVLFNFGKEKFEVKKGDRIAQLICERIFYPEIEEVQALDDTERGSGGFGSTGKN
Assay: Inhibition Assay: The inhibitory activity of the compound against human dUTPase was determined by measuring the production of [5-3H]deoxyuridine monophosphate from [5-3H]deoxyuridine triphosphate.

IC50: 410 nM
SMILES: C[C@@H](NS(=O)(=O)CCCOCn1ccc(=O)[nH]c1=O)c1cccc(OCCF)c1

— ChEMBL document CHEMBL3638618, “Uracil compound or salt thereof having human deoxyuridine triphosphatase inhibitory activity” (2013)
